Data: patent US20100260689A1, “REDUCING SHAVING FREQUENCY” (BEIERSDORF AG, priority 2007, published 2010)

Experiment: Cutting force during the shaving of human hair after 24 hours of exposure time (universal test apparatus with cutting force adapter)
Details: products A-D in artificial sweat solution, five hair fibers cut, 90° cutting angle
Method: The measurements are thereby carried out on a universal test apparatus with cutting force adapter with four friction bearings and recorded by means of TestXpert software.
Five hair fibers were cut for the measurement.
Due to the influence of the cross section of the hair fiber, a preliminary grouping of the hair fibers to be cut is indispensable, which ensures that the products to be compared were carried out on hair fibers with the same cross section so that relative results are obtained.
Five hair fibers fixed on one side are cut with the aid of a commercially available blade (single-blade razor with replaceable blade) at a constant speed. The blade is thereby clamped in an adapter specially produced for this purpose, which ensures a guidance of the blade with the aid of four friction bearings. The determination of the cutting force is carried out by maximum force detection. At the same time, the friction force of the friction bearings is recorded during each measurement.
Measurement parameters: Measurement speed: 100 mm/min • Cutting angle: 90° • Blade grind: approx. 12°
The tested products A-D (see FIG. 1) comprise an artificial sweat solution composed of […]
In a further comparative test, the cutting force on human hair was measured after 24 hours of exposure time of three preparations (FIG. 2). […]

## Aluminum chlorohydrate [aluminum chlorohydrates]
FIG. 1
  cutting force during the shaving of human hair: reduction of the cutting force
FIG. 1, listed as ACH
  cutting force during the shaving of human hair: cutting force reduction
